Legend:
Experiment in all cases: relative viability (nuclei count vs DMSO), 5 days (fraction); higher = more cells survive
[1] = compound: COC1=CC=C(C=C1)CN2C=CC3=C2C=C(C=C3)C(=O)NO + O=C(c1cc(Cc2n[nH]c(=O)c3ccccc23)ccc1F)N1CCN(C(=O)C2CC2)CC1 [Olaparib] (partner 8 µM)
In short: (§1)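 Relative viability was taken as the ratio of nuclei in treated wells to nuclei in vehicle wells. Lung cancer cell lines in 1536-well plates received compounds by pin tool one day after seeding, either one drug alone or a fixed anchor-drug dose plus five library-drug doses (not always all listed) in √10 steps. Nuclei were counted on 4× images after 5 days of treatment, and values are medians of duplicate plates.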

[2] = compound: C[C@]1(c2nc3c(C(N)=O)cccc3[nH]2)CCCN1 [Veliparib] + C[C@@H](Oc1cc(-c2cnn(C3CCNCC3)c2)cnc1N)c1c(Cl)ccc(F)c1Cl [Crizotinib] (partner 1 µM)
In short: as §1

[3] = compound: C[C@]1(c2nc3c(C(N)=O)cccc3[nH]2)CCCN1 [Veliparib] + CC(=O)Nc1cccc(-n2c(=O)n(C3CC3)c(=O)c3c(Nc4ccc(I)cc4F)n(C)c(=O)c(C)c32)c1 [Trametinib] (partner 0.02 µM)
In short: as §1

[4] = compound: C[C@]1(c2nc3c(C(N)=O)cccc3[nH]2)CCCN1 [Veliparib] + COc1cccc2cc(-c3nc([C@H]4CC[C@H](C(=O)O)CC4)n4ncnc(N)c34)[nH]c12 [OSI-027] (partner 0.5 µM)
In short: as §1

Row | Cell Line | relative viability ([1]; first compound 0.08 µM) | relative viability ([1]; first compound 0.253 µM) | relative viability ([1]; first compound 0.8 µM) | relative viability ([1]; first compound 2.53 µM) | relative viability ([1]; first compound 8 µM) | relative viability ([2]; first compound 0.02 µM) | relative viability ([2]; first compound 0.06325 µM) | relative viability ([2]; first compound 0.2 µM) | relative viability ([2]; first compound 0.6325 µM) | relative viability ([2]; first compound 2 µM) | relative viability ([3]; first compound 0.02 µM) | relative viability ([3]; first compound 0.06325 µM) | relative viability ([3]; first compound 0.2 µM) | relative viability ([3]; first compound 0.6325 µM) | relative viability ([3]; first compound 2 µM) | relative viability ([4]; first compound 0.02 µM) | relative viability ([4]; first compound 0.06325 µM) | relative viability ([4]; first compound 0.2 µM) | relative viability ([4]; first compound 0.6325 µM) | relative viability ([4]; first compound 2 µM)
1 | NCI-H2087 | 0.564 | 0.595 | 0.676 | 0.524 | 0.56 | 0.729 | 0.722 | 0.831 | 0.806 | 0.61 | 0.198 | 0.205 | 0.215 | 0.168 | 0.154 | 0.303 | 0.475 | 0.504 | 0.456 | 0.539
2 | LCLC-97TM1 | – | 0.422 | 0.375 | 0.36 | 0.38 | 0.248 | 0.349 | 0.354 | – | 0.234 | 0.221 | 0.178 | 0.202 | 0.183 | 0.198 | 0.51 | 0.5 | 0.505 | 0.433 | 0.587
3 | HCC-827 | 0.573 | 0.697 | 0.655 | 0.68 | 0.531 | 0.913 | 0.919 | 0.947 | 0.921 | 0.905 | 0.59 | 0.514 | 0.529 | 0.504 | 0.516 | 0.763 | 0.843 | 0.722 | 0.552 | 0.786
4 | COR-L 105 | 0.558 | 0.743 | 0.808 | 0.715 | 0.706 | 0.881 | 0.583 | 0.921 | 0.786 | 0.696 | 0.448 | 0.463 | 0.475 | 0.432 | 0.468 | 0.462 | 0.715 | 0.651 | 0.626 | 0.654
5 | NCI-H1915 | 0.233 | 0.26 | 0.234 | 0.259 | 0.24 | 0.866 | 0.869 | 0.803 | 0.754 | 0.771 | 0.309 | 0.289 | 0.302 | 0.292 | 0.291 | 0.587 | 0.616 | 0.545 | 0.567 | 0.574
6 | NCI-H650 | 0.351 | 0.417 | 0.452 | 0.353 | 0.418 | 0.696 | 0.72 | 0.708 | 0.665 | 0.572 | 0.999 | 0.999 | 0.988 | 0.938 | 0.971 | 0.436 | 0.415 | 0.543 | 0.48 | 0.55
7 | HCC-44 | 0.974 | 0.931 | 1.01 | 1 | 1.06 | 0.834 | 0.708 | 0.85 | 0.74 | 0.835 | 1.07 | 0.938 | 1.14 | 1.04 | 1.06 | 0.556 | – | 0.478 | 0.682 | 0.479
8 | NCI-H2228 | 0.686 | 0.82 | 0.79 | 0.88 | 0.651 | 0.436 | 0.405 | 0.457 | 0.447 | 0.475 | 0.362 | 0.57 | 0.597 | 0.523 | 0.368 | 0.529 | 0.569 | 0.56 | 0.486 | 0.551
9 | PC-14 | 0.242 | 0.224 | 0.306 | 0.236 | 0.215 | 0.896 | 0.898 | 0.781 | 0.766 | 0.766 | – | 0.664 | 0.699 | 0.686 | 0.834 | 0.292 | 0.774 | 0.82 | 0.743 | 0.866
10 | RERF-LC-KJ | 0.829 | 0.825 | 0.986 | 0.816 | 0.806 | 0.893 | 0.751 | 0.847 | 0.784 | 0.783 | 0.938 | 0.822 | 0.899 | 0.845 | 0.858 | 0.39 | 0.455 | 0.634 | 0.538 | 0.57
11 | LK-2 | – | 0.792 | 0.787 | 0.688 | 0.722 | – | 0.179 | 0.149 | 0.232 | 0.183 | 0.773 | 0.773 | 0.788 | 0.763 | 0.766 | 0.164 | 0.204 | 0.229 | 0.263 | 0.206
12 | NCI-H1944 | – | 0.425 | 0.422 | 0.423 | 0.374 | 0.995 | 1.04 | 0.951 | 0.965 | 0.976 | 0.432 | 0.398 | 0.418 | 0.418 | 0.405 | 0.439 | 0.363 | 0.394 | 0.349 | 0.384
13 | NCI-H1734 | – | 0.325 | 0.63 | 0.55 | 0.676 | 0.701 | 0.641 | 0.728 | 0.623 | 0.682 | – | 0.613 | 0.792 | 0.631 | 0.72 | 0.44 | 0.575 | 0.57 | 0.585 | 0.67
14 | H3255 | 0.549 | 0.482 | 0.605 | 0.579 | 0.532 | 0.898 | 0.904 | 0.814 | 0.829 | 0.969 | 0.614 | 0.572 | 0.672 | 0.624 | 0.632 | 0.674 | 0.681 | 0.584 | 0.545 | 0.584

From the supplement of paper PMC10307832
